# Measurements published in article PMC11180795 (Frontiers in Pharmacology, 2024).
# Key:
# [1] = molecular target: T1, COX-1 (Mus musculus, UniProt P22437); assay: Fluorometric COX activity assay in lysate of LPS-treated Raw 264.7 cells, COX-1; format: cell-based, Murine; settings: compound at 20 µM, LPS 0.1 μg/mL, 24 h; untreated control 85.19 µU/mg
# T1 construct: The cell lysate was centrifuged at 12000 x g for 3 min and the supernatant was collected for COX activity assay; endogenous in cells
# T1 sequence (P22437 27-602): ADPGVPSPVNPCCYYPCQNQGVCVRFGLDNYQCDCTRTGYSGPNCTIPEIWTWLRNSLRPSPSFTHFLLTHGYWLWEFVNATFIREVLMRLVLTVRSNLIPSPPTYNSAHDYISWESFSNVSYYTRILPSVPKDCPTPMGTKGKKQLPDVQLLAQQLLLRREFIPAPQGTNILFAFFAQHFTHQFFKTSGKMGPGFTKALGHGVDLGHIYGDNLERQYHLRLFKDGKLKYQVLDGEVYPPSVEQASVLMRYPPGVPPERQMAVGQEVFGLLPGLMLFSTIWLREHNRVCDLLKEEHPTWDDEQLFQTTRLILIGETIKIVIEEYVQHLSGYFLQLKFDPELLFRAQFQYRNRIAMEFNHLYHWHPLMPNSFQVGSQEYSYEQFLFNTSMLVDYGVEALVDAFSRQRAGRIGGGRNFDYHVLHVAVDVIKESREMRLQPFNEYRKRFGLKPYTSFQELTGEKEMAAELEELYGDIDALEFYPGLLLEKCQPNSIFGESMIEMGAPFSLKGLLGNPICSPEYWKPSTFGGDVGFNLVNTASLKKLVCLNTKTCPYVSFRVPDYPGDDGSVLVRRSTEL
# Procedure: The fluorometric cyclooxygenase activity assay kit (Biovision) was used to evaluate the activity of COX-1 and COX-2 enzymes. Raw 264.7 cells were seeded at 2 × 10^5 cells/mL in a 48-well microplate, and allowed to adhere for 24 h, then treated with LPS 0.1 μg/mL and compounds (1), (5) and (6) at 20 µM against Raw 264.7 cells. After 24 h the cyclooxygenase enzyme (COX-1 and COX-2) activity assay was performed. Cells were detached with TNE buffer (Tris 40 mM, NaCl 150 mM, EDTA 1 mM) and washed with PBS (1x), then re-suspended in 1 mL PBS (1x), transferred into 1.5 mL tube, and centrifuged at 500 x g for 3 min. The pellet was then re-suspended in 0.5 mL of lysis buffer with a protease inhibitor cocktail, vortexed, and incubated at 4°C for 5 min. The cell lysate was centrifuged at 12000 x g for 3 min and the supernatant was collected for COX activity assay. The COX activity was assessed using the fluorometric cyclooxygenase activity assay kit (Biovision) following the manufacturer’s instructions. The assay includes COX-1 and COX-2 specific inhibitors to differentiate the activity of COX-1 and COX-2 as well as other peroxidases. Indomethacin (10 µM) was used as a standard drug and appropriate controls were also included.
# [2] = tested on: IL-6; assay: Th1/Th2 cytokine measurement (Cytometric Bead Array) in LPS-stimulated Raw 264.7 cells, IL-6; format: cell-based, Murine; settings: compound at 20 µM, LPS 0.1 μg/mL, 24 h; stimulated untreated control 175.96 pg/mL
# Procedure: (§1) Raw 264.7 cells were seeded at 2 × 10^5 cells/mL in a 48-well microplate and allowed to adhere for 24 h, then treated with LPS 0.1 μg/mL and with compounds (1), (5) and (6) at 20 µM. Untreated cells and indomethacin (10 µM) were used as controls. After 24 h of incubation, the supernatant was collected and the amount of pro-inflammatory Th1 cytokines (IFN-γ, TNF-α, and IL-2) and anti-inflammatory Th2 cytokines (IL-4, IL-6, and IL-10) released measured. The experiment was performed according to the manufacturer’s instructions using BD™ Cytometric Bead Array (CBA) […] Th1/Th2 Cytokine Kit (BD-Biosciences), and data were acquired on a BD LSR Fortessa™ cell analyzer flow cytometer.
# [3] = tested on: IL-2; assay: Th1/Th2 cytokine measurement (Cytometric Bead Array) in LPS-stimulated Raw 264.7 cells, IL-2; format: cell-based, Murine; settings: compound at 20 µM, vs stimulated and untreated control
# Procedure: as §1
SMILES,COX-1 activity [1] [µU/mg],IL-6 level [2] [pg/mL],effect on IL-2 production (in words) [3],melting point [°C]
"CC(C)=CCc1c2c(c3oc4c(O)cccc4c(=O)c3c1O)C=CC(C)(C)O2 [Compound 1, Ananixanthone]",52.55,144.25,,
"CC(C)=CCC/C(C)=C/C[C@]12C[C@@H](CC=C(C)C)C(C)(C)[C@](C/C=C(\C)CCC=C(C)C)(C(=O)C(C(=O)c3ccc(O)c(O)c3)=C1O)C2=O [Compound 5, Guttiferone O]",32.28,,significantly reduces,103
"CC(C)=CCC/C(C)=C/C[C@]12C[C@@H](CC=C(C)C)C(C)(C)[C@](CC=C(C)C)(C(=O)C(C(=O)c3ccc(O)c(O)c3)=C1O)C2=O [Compound 6, Guttiferone M]",,,limited effect,82
